Legend:
[1] = tested on: Plasmodium falciparum parasites; experiment: standard hypoxanthine incorporation method in Plasmodium falciparum parasites; format: cell-based; conditions: read-out: IC50 (50% inhibitory concentration)
[2] = tested on: PEcΔTFPK transformed with plasmids containing Pfdhfr-ts (WT) and Pfhppk-dhps (WT); experiment: growth inhibition of PEcΔTFPK surrogate host (antifolate drug screening); format: cell-based, Escherichia coli BL21(DE3); conditions: PEcΔTFPK with wild type Pfdhfr-ts and Pfhppk-dhps, minimal media with L-arabinose, 37 degrees Celsius, 16 hours
Experimental: (§1) Pyrimethamine and sulfathiazole were chosen for this experiment. The 50% inhibitory concentrations (IC50) of each drug were calculated from dose-response growth curves for PEcΔTFP and PEcΔTFPK surrogates transformed with plasmids containing wild type Pfdhfr-ts and Pfhppk-dhps. Cells were incubated in various concentrations of drug in minimal media supplemented with L-arabinose as an inducer and antibiotics for selection of complementing plasmids in 96-well plates at 37 degrees Celsius for 16 hours.

[3] = tested on: PEcΔTFP transformed with plasmids containing Pfdhfr-ts (WT) and Pfhppk-dhps (WT); experiment: growth inhibition of PEcΔTFP surrogate host (antifolate drug screening); format: cell-based, Escherichia coli BL21(DE3); conditions: PEcΔTFP with wild type Pfdhfr-ts and Pfhppk-dhps, minimal media with L-arabinose, 37 degrees Celsius, 16 hours
Experimental: as §1

Row | SMILES | IC50 [1] | IC50 from dose-response growth curves compared with the standard method [2] | IC50 from dose-response growth curves compared with the standard method [3]
1 | Nc1ccc(S(=O)(=O)Nc2nccs2)cc1 [sulfathiazole] | 135.4 ± 0.49 µM | very similar to values from the standard hypoxanthine incorporation method | very similar to values from the standard hypoxanthine incorporation method
2 | CCc1nc(N)nc(N)c1-c1ccc(Cl)cc1 [pyrimethamine] | 0.041 ± 0.006 µM |  | 

Source: patent US10011842B2, “Escherichia coli cell line with thyA knockout, folA knockout, and one or both of folP knockout, and folK knockout” (priority 2013, dated 2018)
